Data published in a melting point compilation (Tetko et al.; mined from patent text by program, amines drawn as free bases though some values may be those of a salt).

melting point [°C]	SMILES
94	CCC1CCc2c(sc3cc(OCc4ccccc4)ccc3c2=O)C1 (stereo not given)
115 to 116	CC(=O)N1CCc2cc(Cl)ccc21
202	O=c1ccc(Oc2ccc(Cl)cc2)n[nH]1
177 to 178	CCCCN(CC)c1cc(C)nc(Oc2c(C)cc(Cl)cc2C)c1C
120 to 124	Cc1ccc2cccc(OCc3cc(N(C)C(=O)CN4C(=O)c5ccccc5C4=O)ccc3Cl)c2n1
97 to 99	CCCCCCCCCCOc1ccc(-c2ccc(C#CCCC(C)O)cc2)cc1 (stereo not given)
> 260	Cc1nc2c([nH]1)C(=O)c1ccccc1C2=O
128	Cc1nnc(N(Cc2ccccc2)C(=O)Cc2ccccc2)s1
144 to 146	CC(OC(C)c1ccc(-c2ccc(Cl)cc2)cc1)C(=O)O (stereo not given)
162 to 164	O=C1c2cccc(O)c2CC12CCCCC2
90	CCOC(=O)N(C)CCCC1=CC2(CCCC2)c2ccccc21
212 to 213	CC(=O)N(NC(=O)c1ccccc1)[C@@H]1c2cc(C#N)ccc2OC(C)(C)[C@H]1O (relative stereo)
59 to 60	CCOC(=O)C(C(=O)OCC)C(=O)c1ccc(C(F)(F)F)cc1[N+](=O)[O-]
247 to 248	COC(=O)c1cc(C(=O)NCC(N)=O)c2cc(Cc3ccc(F)cc3)cnc2c1O
132 to 134	COc1ccc(-c2cc(Cl)c3c(Cl)c(O)ccc3c2)cc1
189 to 191	CS(=O)(=O)Nc1cc(CC(=O)O)cc2c1NC(C(F)(F)F)CC2 (stereo not given)
173 to 175	NC(=O)N(O)CCNC(=O)c1ccc(Oc2ccc(Cl)cc2)o1
168 to 171	O=C(O)CCCC(=O)Oc1cccc(-c2cn3c(n2)sc2ccccc23)c1
130 to 133	COC(=O)[C@H]1CC[C@@H](C(=O)O)CN1S(C)(=O)=O (racemic)
164 to 168	CS(=O)(=O)Nc1cccc(Nc2nc(NCC(O)CO)c3nc[nH]c3n2)c1 (stereo not given)
60	C#CCOC(=O)Oc1ccc(Cc2ccc(OC(=O)OCC#C)cc2)cc1
160 to 163	O=C(NCCCO)c1cc(O)c(O)c([N+](=O)[O-])c1
69 to 70	ClCc1cc(-c2ccccc2)no1
125 to 126	CCCC[C@H](NC(=O)[C@H](CC(C)C)NC(=O)c1cc(F)cc(F)c1)C(=O)CSCc1ccco1

melting point [°C]	SMILES
75 to 75.8	COc1ccc(C(=O)C=Cc2ccccc2F)c(OC)c1OC
200	CCON=C(C(=O)O)c1csc(NC(c2ccccc2)(c2ccccc2)c2ccccc2)n1
205 to 207	COc1ccc(N2CCOCC2)c2sc(-c3nc4c([nH]3)CCN(C(=O)c3ccc(F)cc3)CC4)nc12
54	CCCCc1nn2c(C)cccc2c1Cc1ccc(Br)cc1
168 to 169	CCCCS(=O)(=O)NC(=O)c1ccc(C(=O)NCCO)nc1
> 270	CSc1ncc(C(=O)NC2CC2)c(Nc2ccc3cn[nH]c3c2)n1
122 to 123	CC(=O)Nc1nc(CCc2ccc(CCNC(=N)N)s2)cs1
182 to 183	COC(=O)c1cc(CCCc2cc3c(=O)[nH]c(N)nc3[nH]2)cs1
155 to 157	CCCCc1nn(-c2cc(N)ccc2Cl)c(=O)n1Cc1ccc(-c2ccccc2S(=O)(=O)NC(=O)c2ccccc2Cl)cc1
105 to 109	CC1(C)CC(=O)N(CC(CS(=O)(=O)c2ccc(-c3ccc(F)cc3)cc2)N(O)C=O)C(=O)C1 (stereo not given)
180 to 182	CCOC(=O)c1cncc(C(=O)O)c1
70 to 72	NCc1ccc(CN2CCN(c3ncccn3)CC2)cc1
163 to 164	CC1(C)OC(=O)c2ccc(C(c3c(F)cc([N+](=O)[O-])cc3F)n3cncn3)cc21 (stereo not given)
98 to 107	COc1cc2c(cc1Nc1ncc(Cl)c(N[C@@H]3CCCC[C@H]3NS(C)(=O)=O)n1)CCN(C(=O)C(F)(F)F)CC2
96 to 104	COC1=CCC(Br)(OC)C=C1C(=O)C(Br)CCC1CCCCC1 (stereo not given)
260 to 262	N#CCOC(=O)c1ccc2nc3ccc(O)cc3c(=O)n2c1
120	COc1ccc(CN(CCN(C)CCCNC(=O)NCCCOc2cccc(CN3CCCCC3)c2)c2ccccn2)cc1
181 to 182	COc1ccc2c(C)c3n(c2c1)CCCC3NC=O (stereo not given)
216 to 217	CCOc1nsc(N)c1C#N
209 to 210	COc1cc(C2=NNC(=O)CC2)ccc1O
80 to 82	CC(C)Oc1c(C(=O)NCc2ccccc2)oc2ccc(Cl)cc12
147	CCc1ccccc1S(=O)(=O)N(OCCF)C(=O)n1nc(C)n(C2CC2)c1=O
45	CC1(C)C2CC(=O)C(CCC(=O)O)C1C2 (stereo not given)
147	CCC(=O)c1cc2ccccc2cc1C(=O)O

melting point [°C]	SMILES
193	CN(Cc1ccccc1)c1cc(C(=O)O)ccc1C(N)C(=O)O (stereo not given)
82 to 83	Cc1cccc(C)c1C(=O)OC1CCCCC1=O (stereo not given)
151 to 153	Cc1cc(C(N)=O)c(NC(=O)CCC(F)(F)F)s1
104 to 105	COC1OC(CO)C(OCc2ccccc2)C(O)C1OCc1ccccc1 (stereo not given)
162 to 163	CCOC(=O)c1cc2cc(OCCCS(C)(=O)=O)cc([N+](=O)[O-])c2[nH]1
162	CCOC(=O)N1CCC(NC(=S)Nc2cc(Cl)ccc2NCc2ccccc2)CC1
94 to 96	CCc1cccc(C)c1NC(=S)NC(C)(C)C
124 to 125	N#Cc1sc2ccccc2c1Cl
116 to 118	CC(=O)c1c(-c2ccc(F)cc2)sc(-c2ccncc2)c1C
75	COc1ccc(Sc2ncc(Cl)cn2)cc1
175 to 177	Cc1cccc(S(=O)(=O)N2Cc3ccccc3C2)c1
140 to 142	CCCCC(C(=O)OCC)c1ccc(N2Cc3ccccc3C2=N)cc1 (stereo not given)
90 to 92	CC(C)NCC(O)COC1c2ccccc2C(=O)N1c1ccc(Cl)cc1 (stereo not given)
172 to 175	COC(=O)C(Cc1ccccc1)NC(=O)C(CC(=O)O)NC(=O)C(N)C(C)C(=O)O (stereo not given)
180 to 220	O=C(O)Cc1ccc(C(NC(=O)c2ccccc2)C(=O)O)cc1 (stereo not given)
39 to 42	CCCCCCCCCCCCn1nnc(CCC(=O)OC)n1
123	CCCN(CCCc1c[nH]c2ccc(F)cc12)C1COc2c(C(N)=O)ccc(F)c2C1 (stereo not given)
172 to 174	COCC1CCCN1Cc1ccc2cc(NC(=O)c3ccc(-c4ccc(Cl)cc4)cc3)ccc2n1 (stereo not given)
179	O=C(NC1CCC(CCN2CCC(c3cccc4c3CCO4)CC2)CC1)C(O)C(F)(F)F (racemic)
127 to 128	CS(=O)(=O)c1ccc(Oc2ccc(C#N)cc2)cc1
250 to 251	O=C(O)c1cccc(-c2cc(-c3ccccc3)on2)c1
146 to 147	CN1CCC(C2(O)CC(c3ccc(F)cc3)c3ccc(F)cc32)CC1 (stereo not given)
65 to 69	Fc1ccc(-c2cc(Cl)ncn2)c(F)c1
108 to 110	Cc1c(C)c2c(c(C)c1OCc1ccccc1)CC(CCN1C(=O)c3ccccc3C1=O)O2 (stereo not given)

melting point [°C]	SMILES
84 to 89	CCOc1cc2c(cc1OC)C(c1ccc(C(=O)N(C(C)C)C(C)C)cc1)=N[C@@H]1CCSC[C@H]21
180 to 182	COC(=O)Nc1cc2c(cn1)[nH]c1ccccc12
140	CC(=O)NC[C@H]1CN(c2cccc(F)c2)C(=O)O1
90 to 92	OC(CCc1cccnc1)CSc1ccc2ccccc2c1 (stereo not given)
107 to 109	COc1cc(C(C)=NNC(=N)NCc2ccccc2)cc(OC)c1OC
164	COc1ccc2c(c1OS(=O)(=O)C(F)(F)F)COCc1cc(OC)c(OC)c(OC)c1-2
189 to 191	COC(=O)c1ccc(NC(=N)Nc2nc(-c3ccccc3)cs2)cc1
35 to 38	OC1(Cc2ccccc2F)CCCCCC1
241 to 243	CCCc1nn(C)c2c(=O)[nH]c(Cc3ccc(NC(=O)/C=C/OCC)cc3)nc12
128	CNC(=O)c1cc(F)c(Cl)cc1F
150	COc1cccc(Oc2c(NS(=O)(=O)c3ccc(C(C)(C)C)cc3)ncnc2SCCO)c1
82 to 83	CCN(CC)S(=O)(=O)c1cc(Cl)c(Cl)c(Cl)c1SCCl
160 to 162	CSc1nccc(-c2c3cccnc3n3c(NC(C)=O)nccc23)n1
157 to 159	CCN1C(=O)C(C)(C)C(=O)N(C)c2cc(CN(CCn3ccc4oc(C)cc4c3=O)Cc3ccccc3C#N)ccc21
119 to 121	C=C(c1ccccc1)c1cc2cc(OC)ccc2[nH]1
> 300	O=C(O)c1cn(-c2ccc(F)cc2F)c2c(F)c(N3Cc4cccc(F)c4C3)c(F)cc2c1=O
102 to 104	COc1cccc(-n2[nH]c(Cc3c(C)n(C(=O)c4ccc(Cl)cc4)c4ccc(OC)cc34)cc2=O)c1
62 to 64	CCCCCCCCCCc1nnn(C(C(=O)O)c2ccccc2)n1 (stereo not given)
262 to 264	CC(C)(C)c1cc(NC(=O)c2csc(-c3ccc([N+](=O)[O-])cc3)n2)cc(C(C)(C)C)c1O
> 250	COc1ccc(NC(=O)N[C@H]2C[C@@](N)(C(=O)O)[C@@H]3[C@@H](C(=O)O)[C@@H]32)cc1 (relative stereo)
189 to 190	N#Cc1ccc(C(=O)NC2CCCNC(=O)C2)cc1 (stereo not given)

SMILES	melting point [°C]
CCN1C(=O)C(C(=O)Nc2ccc(Cl)cc2Oc2ccc(Cl)cc2)C(=O)N(C)C1=S (stereo not given)	250 to 251
COc1ccc(CN2CCC(c3cn(Cc4ccco4)c4ccccc34)CC2)cc1C(=O)O	237 to 238
CCN(CC)Cc1nc(-c2ncn3c2[C@@H]2CCCN2C(=O)c2c(Cl)cccc2-3)no1	151 to 153
CN1CCN(c2cnc3cc(Cl)ccc3n2)CC1	151 to 152
NCC(=O)Nc1ccc(Br)cc1C(=NCCO)c1ccccc1F	167 to 168
O=C(COCC(=O)Nc1ccc([N+](=O)[O-])c(C(F)(F)F)c1)Nc1ccc([N+](=O)[O-])c(C(F)(F)F)c1	137 to 138
Cc1cc(C)c(C(=O)P(=O)(Oc2ccccc2C(C)(C)C)c2ccccc2)c(C)c1 (stereo not given)	76 to 79
